# Assay results: patent US11426402B2, “IRE1 activating compounds for use in therapy” (The Scripps Research Institute, priority 2019, dated 2022)
# Tests used:
# [1] = Toxicity, body weight and food intake in DIO mice; format: in vivo
# Procedure: (§1) FIGS. 7A-7D. RT-PCR of Xbp1s and the IRE1/XBP1s target gene Erdj4 from adipose tissue post single IP dose of 474 (FIG. 7A). Liver RNAseq profiles of ATF6, IRE1 and PERK target genes expressed as log 2 fold change of chronic 474 treatment compared to vehicle (FIG. 7B). Body weight (FIG. 7C) and food intake (FIG. 70) over 6 weeks of dosing.
# (§2) To test the efficacy of pharmacologic IRE1 activation in mitigating T2D, we chronically administered 474 by once-daily IP injections at 50 mg/kg for a period of 6 weeks to Diet-Induced Obese (DIO) mice, a model of T2D.
# [2] = system: APP; test: [35S] metabolic labeling of APP in 7PA2 CHO cells; format: cell-based
# Procedure: FIGS. 5A-5D. […] Cells were treated for 18 hours, media was then replaced and conditioned in the presence of treatments for 24 hours before harvesting for ELISA assay. Error bars represent SEM for n=3 replicates. Statistics calculated from one-tailed Student's t-test. *p<0.05, **p<0.01, ***p<0.001 (FIG. 5A). Quantification of media and lysate immunoblots from 474 treatment (10 μM) of APP. Error bars represent Standard Deviation for n=3 replicates. Statistics calculated from one-tailed Student's t-test. *p<0.05, **p<0.01 ***p<0.001 (FIG. 5B). […] Statistics calculated from one-tailed Student's t-test. *p<0.05, **p<0.01, ***p<0.001 (FIG. 5C). […] Statistics calculated from one-tailed Student's t-test. *p<0.05, **p<0.01, ***p<0.001 (FIG. 5D).
# [^35S] metabolic labeling experiments were performed as previously described^8. […] Band intensities were quantified by densitometry in ImageQuant. Fraction secreted was calculated using the equation: fraction secreted=[extracellular [^35S]-APP signal at t/(extracellular [^35S]-APP signal at t=0+intracellular[^35S]-APP signal at t=0)]. Fraction remaining was calculated using the equation: [(extracellular [^35S]-APP signal at t+intracellular [^35S]-APP signal at t)/(extracellular [^35S]-APP signal at t=0+intracellular [^35S]-APP signal at t=0)].
# [3] = system: pancreatic islets; test: Glucose stimulated insulin secretion in islets isolated from treated mice; format: in vivo, mouse; settings: relative to vehicle-treated controls
# Text: FIGS. 8A-8E. Oral glucose tolerance test in DIO mice treated with either Vehicle or 474 for 3 weeks (n=8) (FIG. 8A). Serum glucose and insulin levels post 4 weeks of dosing with 474 or vehicle (FIG. 8B). Glucose stimulated insulin secretion in islets isolated from 474 or vehicle treated mice. (FIG. 8C). Hepatic triglyceride content (FIG. 8D) and gene expression profiles of gluconeogenic genes (FIG. 8E) at 6 weeks post dosing.
# This effect can be rationalized, at least in part, by enhanced pancreatic f-cell function in 474-treated […], as shown by our studies in isolated pancreatic islets from vehicle- and 474-treated mice. […] Given the well-documented link between IRE1 and hepatic metabolism in T2D^55, we also examined markers of liver function after 474 treatment. We found reduced liver triglyceride accumulation in 474-treated mice relative to controls (FIG. 80).
# [4] = system: IRE1 target genes; test: Liver RNA sequencing of DIO mice, IRE1 targets; format: in vivo, mouse; settings: once-daily IP 50 mg/kg, 6 weeks
# Procedure: as §1, §2
# [5] = system: SHSY5Y cells; test: TMRE staining of mitochondrial membrane potential in SHSY5Y cells; format: cell-based; settings: 10 μM, 72 hours
# Procedure: FIGS. 6A-6C. Histograms showing TMRE staining of SH-SY5Y cells transiently expressing empty vector (Mock) or Swedish mutant APP in the presence or absence of 474 (10 μM) for 72 hours (FIG. 6A). Quantification of TMRE staining in (A). Error bars represent SEM for n=3 replicates. Statistics calculated from one-tailed Student's t-test. *p<0.05, **p<0.01, ***p<0.001 (FIG. 613). Graph showing relative luminescence from CellTiterGlo assay of SH-SY5Y cells transiently expressing empty vector or Swedish mutant APP cultured in galactose media for 72 hours in the presence or absence of IRE1 activator 474 (10 μM). Error bars represent SEM for n=3 replicates. Statistics calculated from one-tailed Student's t-test. *p<0.05, **p<0.01, ***p<0.001 (FIG. 6C).
# Cells were treated as indicated then incubated with TMRE dye (200 nM) for 30 mins at 37° C. Samples were collected by trypsinization. Trypsin was neutralized by washing into cell culture media and then samples were washed twice in DPBS. […] Fluorescence intensity of TMRE was recorded on the PE channel of a Novocyte Flow Cytometer (ACEA Biosciences, Inc.). Data are presented as mean of the fluorescence intensity from 3 experiments. For each experiment, 10,000 cells per condition in triplicates were recorded.
# Next, mitochondrial membrane potential was monitored in SHSY5Y cells overexpressing APP^SW and that had been treated with 474. […]
smiles,measurement,setting,value
Cc1ccc(OCCN(C)C(=O)Cn2cc(NC(=O)CCOc3ccccc3)cn2)cc1 [Compound 474],body weight and food intake,[1]; 6-week dosing period,remaining similar in all groups
same,toxicity,"[1]; DIO mice, once-daily IP 50 mg/kg, 6 weeks",no evident toxicity
same,APP degradation,[2],increased APP degradation
same,secretion of soluble APP into the media,[2],reduced the secretion of soluble APP
same,insulin secretion from islets upon stimulation with glucose,[3],dramatic increase
same,Xbp1 splicing in liver,[4],robust Xbp1splicing
same,downstream IRE1 targets in liver,[4],selective activation
same,APP SW-associated reductions in mitochondrial membrane potential,[5]; SHSY5Y overexpressing APP SW,prevented
same,mitochondrial membrane potential,[5]; mock-transfected cells,did not influence
